Assay results published in ChEMBL document CHEMBL1201862, “PubChem BioAssay data set” (2004).
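Method: 48-hour compound exposure of cells in 96-well plates, five concentrations, linear interpolation of endpoints. Abbreviation: GI50, concentration required for 50% inhibition of growth.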 The source made the active and inactive calls. Cut-off read from the data, not from the text of the source: active = GI50 up to about 1.1 µM and inactive = higher.

Tests used:
Experiment in all cases: DTP human tumour cell line panel, 48 h
[1] = system: 786-0
[2] = system: A498
[3] = system: A549
[4] = system: ACHN
[5] = system: BT-549
[6] = system: CAKI-1
[7] = system: CCRF-CEM
[8] = system: COLO 205
[9] = system: DU-145
[10] = system: EKVX
[11] = system: HCT-116
[12] = system: HCT-15
[13] = system: HL-60
[14] = system: HOP-62
[15] = system: HOP-92
[16] = system: HT-29
[17] = system: Hs-578T
[18] = system: IGROV-1
[19] = system: K562
[20] = system: KM12
[21] = system: LOX IMVI
[22] = system: M14
[23] = system: MCF7
[24] = system: MDA-MB-231
[25] = system: MDA-MB-435
[26] = system: MDA-N
[27] = system: MOLT-4
[28] = system: NCI-H226
[29] = system: NCI-H23
[30] = system: NCI-H460
[31] = system: NCI/ADR-RES
[32] = system: OVCAR-3
[33] = system: OVCAR-5
[34] = system: OVCAR-8
[35] = system: PC-3
[36] = system: RPMI-8226
[37] = system: SF-268
[38] = system: SF-295
[39] = system: SF-539
[40] = system: SK-MEL-28
[41] = system: SK-MEL-2
[42] = system: SK-MEL-5
[43] = system: SK-OV-3
[44] = system: SN12C
[45] = system: SNB-19
[46] = system: SNB-75
[47] = system: SR
[48] = system: SW-620
[49] = system: T47D
[50] = system: TK-10
[51] = system: U-251
[52] = system: UACC-257
[53] = system: UACC-62
[54] = system: UO-31
[55] = system: Malme-3M
[56] = system: NCI-H522
[57] = system: OVCAR-4
[58] = system: RXF 393

CC(=O)C(=NNc1ccc(-n2c(C)nc3ccc(Br)cc3c2=O)cc1)C(C)=O
GI50 [1]: 33.7 µM (inactive) | GI50 [2]: > 100 µM (inactive) | GI50 [3]: > 100 µM (inactive) | GI50 [4]: 98.4 µM (inactive) | GI50 [5]: > 100 µM (inactive) | GI50 [6]: > 100 µM (inactive) | GI50 [7]: > 100 µM (inactive) | GI50 [8]: > 100 µM (inactive) | GI50 [9]: 93.8 µM (inactive) | GI50 [10]: > 100 µM (inactive) | GI50 [11]: 88.3 µM (inactive) | GI50 [12]: > 100 µM | GI50 [13]: > 100 µM (inactive) | GI50 [14]: 35.8 µM (inactive) | GI50 [15]: 74.3 µM (inactive) | GI50 [16]: > 100 µM (inactive) | GI50 [17]: 26.7 µM (inactive) | GI50 [18]: > 100 µM (inactive) | GI50 [19]: > 100 µM (inactive) | GI50 [20]: > 100 µM (inactive) | GI50 [21]: > 100 µM (inactive) | GI50 [22]: > 100 µM (inactive) | GI50 [23]: > 100 µM (inactive) | GI50 [24]: 37.2 µM (inactive) | GI50 [25]: > 100 µM (inactive) | GI50 [26]: > 100 µM (inactive) | GI50 [27]: > 100 µM (inactive) | GI50 [28]: 72.9 µM (inactive) | GI50 [29]: 70.8 µM (inactive) | GI50 [30]: > 100 µM (inactive) | GI50 [31]: 54.1 µM (inactive) | GI50 [32]: > 100 µM (inactive) | GI50 [33]: > 100 µM (inactive) | GI50 [34]: 53.7 µM (inactive) | GI50 [35]: 73.8 µM (inactive) | GI50 [36]: 50.4 µM (inactive) | GI50 [37]: 56.4 µM (inactive) | GI50 [38]: 98.6 µM (inactive) | GI50 [39]: 47.3 µM (inactive) | GI50 [40]: > 100 µM (inactive) | GI50 [41]: > 100 µM (inactive) | GI50 [42]: 65.6 µM (inactive) | GI50 [43]: > 100 µM (inactive) | GI50 [44]: > 100 µM (inactive) | GI50 [45]: 45.6 µM (inactive) | GI50 [46]: 20.7 µM (inactive) | GI50 [47]: > 100 µM (inactive) | GI50 [48]: > 100 µM (inactive) | GI50 [49]: > 100 µM (inactive) | GI50 [50]: 56.9 µM (inactive) | GI50 [51]: 58.2 µM (inactive) | GI50 [52]: > 100 µM (inactive) | GI50 [53]: 82.4 µM (inactive) | GI50 [54]: > 100 µM (inactive)

NNS(=O)(=O)c1cc(C(=O)O)cc(C(=O)O)c1
GI50 [1]: > 100 µM (inactive) | GI50 [2]: > 100 µM (inactive) | GI50 [3]: > 100 µM (inactive) | GI50 [4]: > 100 µM (inactive) | GI50 [5]: > 100 µM (inactive) | GI50 [6]: > 100 µM (inactive) | GI50 [7]: 28.5 µM (inactive) | GI50 [8]: > 100 µM (inactive) | GI50 [9]: > 100 µM (inactive) | GI50 [10]: > 100 µM (inactive) | GI50 [11]: > 100 µM (inactive) | GI50 [12]: > 100 µM | GI50 [13]: > 100 µM (inactive) | GI50 [14]: > 100 µM (inactive) | GI50 [15]: > 100 µM (inactive) | GI50 [16]: > 100 µM (inactive) | GI50 [17]: 1.09 µM (active) | GI50 [18]: > 100 µM (inactive) | GI50 [19]: > 100 µM (inactive) | GI50 [20]: > 100 µM (inactive) | GI50 [21]: > 100 µM (inactive) | GI50 [22]: > 100 µM (inactive) | GI50 [23]: > 100 µM (inactive) | GI50 [24]: > 100 µM (inactive) | GI50 [25]: > 100 µM (inactive) | GI50 [26]: > 100 µM (inactive) | GI50 [27]: > 100 µM (inactive) | GI50 [55]: > 100 µM (inactive) | GI50 [28]: > 100 µM (inactive) | GI50 [29]: > 100 µM (inactive) | GI50 [30]: > 100 µM (inactive) | GI50 [56]: > 100 µM (inactive) | GI50 [31]: > 100 µM (inactive) | GI50 [32]: > 100 µM (inactive) | GI50 [57]: > 100 µM (inactive) | GI50 [33]: > 100 µM (inactive) | GI50 [34]: > 100 µM (inactive) | GI50 [35]: > 100 µM (inactive) | GI50 [36]: > 100 µM (inactive) | GI50 [58]: > 100 µM (inactive) | GI50 [37]: > 100 µM (inactive) | GI50 [38]: > 100 µM (inactive) | GI50 [39]: > 100 µM (inactive) | GI50 [40]: > 100 µM (inactive) | GI50 [41]: > 100 µM (inactive) | GI50 [42]: > 100 µM (inactive) | GI50 [43]: > 100 µM (inactive) | GI50 [44]: > 100 µM (inactive) | GI50 [45]: > 100 µM (inactive) | GI50 [47]: > 100 µM (inactive) | GI50 [48]: > 100 µM (inactive) | GI50 [49]: > 100 µM (inactive) | GI50 [50]: > 100 µM (inactive) | GI50 [51]: > 100 µM (inactive) | GI50 [52]: > 100 µM (inactive) | GI50 [53]: > 100 µM (inactive) | GI50 [54]: > 100 µM (inactive)
